Measurements: patent publication US20100249093A1, “Substituted Heteroarylpiperidine Derivatives As Melanocortin-4 Receptor Modulators” (SANTHERA PHARMACEUTICALS (SCHWEIZ) AG, priority 2007, published 2010)

Tests used:
[1] = target: T1, human melanocortin-4 receptor (MC-4R) (Homo sapiens, UniProt P32245); experiment: Membrane binding assay: competition with fluorescence labeled NDP-alpha-MSH, fluorescence polarization; conditions: HEK293 cell membrane preparations expressing human MC-4R, read-out: hMC-4R binding assay IC50
T1 construct: expressed in transfected cells; host or cells: HEK293

[2] = target: T1, human melanocortin-4 receptor (MC-4R); experiment: Functional assay: agonistic activity, cAMP production in membrane preparations compared with NDP-alpha-MSH, fluorescence polarization; type: biochemical; conditions: for Emax: cAMP produced compared to stimulation with NDP-alpha-MSH, read-out: % activation functional assay; for EC50: cAMP production, membrane preparations from HEK293 cells expressing human MC-4R, read-out: hMC-4R functional assay EC50

T1 sequence (P32245 whole entry): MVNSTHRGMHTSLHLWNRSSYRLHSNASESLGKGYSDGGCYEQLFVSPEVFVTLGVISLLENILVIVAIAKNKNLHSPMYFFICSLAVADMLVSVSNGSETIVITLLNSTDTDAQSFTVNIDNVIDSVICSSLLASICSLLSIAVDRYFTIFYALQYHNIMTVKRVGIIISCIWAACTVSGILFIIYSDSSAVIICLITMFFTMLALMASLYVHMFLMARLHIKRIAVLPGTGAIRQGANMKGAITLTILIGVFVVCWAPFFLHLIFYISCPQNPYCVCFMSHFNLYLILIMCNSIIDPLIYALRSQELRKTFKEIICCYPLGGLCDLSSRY

Row | SMILES | IC50 [1] [nM] | Emax [2] [%] | EC50 [2] [nM]
1 | COC[C@H](CN(C)C)Oc1cccnc1C1CCN(C(=O)[C@@H](Cc2ccc(Cl)cc2Cl)NC(=O)N2CCCC2)CC1 [Example 46] | > 1000 | -13 | –
2 | COC[C@@H](CN(C)C)Oc1cccnc1C1CCN(C(=O)[C@@H](Cc2ccc(Cl)cc2Cl)NC(=O)N2CCCC2)CC1 [Example 47] | ≤ 100 | -36 | 100 to 1000
3 | CN1CCOC[C@H](Oc2cccnc2C2CCN(C(=O)[C@@H](Cc3ccc(Cl)cc3Cl)NC(=O)N3CCCC3)CC2)C1 [Example 48] | ≤ 100 | 0 | –
4 | CC[C@H]1CN(C)CCN1Cc1cccnc1C1CCN(C(=O)[C@@H](Cc2ccc(Cl)cc2Cl)NC(=O)N2CCCC2)CC1 [Example 50] | ≤ 100 | 0 | –
5 | CN1CCOC[C@@H](Oc2cccnc2C2CCN(C(=O)[C@@H](Cc3ccc(Cl)cc3Cl)NC(=O)N3CCCC3)CC2)C1 [Example 52] | 100 to 1000 | 4 | –
6 | CN1CCN(C)CC(Oc2cccnc2C2CCN(C(=O)[C@@H](Cc3ccc(Cl)cc3Cl)NC(=O)N3CCCC3)CC2)C1 [Example 56] | ≤ 100 | -5 | –
7 | CN(C)[C@@H]1CCC[C@@H]1Oc1cccnc1C1CCN(C(=O)[C@@H](Cc2ccc(Cl)cc2Cl)NC(=O)N2CCCC2)CC1 [Example 57] | ≤ 100 | 5 | –
8 | CN(C)C[C@@H](Oc1cccnc1C1CCN(C(=O)[C@@H](Cc2ccc(Cl)cc2Cl)NC(=O)N2CCCC2)CC1)C(F)(F)F [Example 58] | 100 to 1000 | 4 | –
9 | CN1CCN(Cc2cc(F)cnc2C2CCN(C(=O)[C@@H](Cc3ccc(Cl)cc3Cl)NC(=O)N3CCCC3)CC2)CC1 [Example 59] | ≤ 100 | -1 | –
10 | CC[C@H](COc1cc(F)cnc1C1CCN(C(=O)[C@@H](Cc2ccc(Cl)cc2Cl)NC(=O)N2CCCC2)CC1)N(C)C [Example 60] | ≤ 100 | -12 | –
11 | CC[C@@H](CN(C)C)Oc1cc(F)cnc1C1CCN(C(=O)[C@@H](Cc2ccc(Cl)cc2Cl)NC(=O)N2CCCC2)CC1 [Example 61] | ≤ 100 | 1 | –
12 | C[C@@H](CCN(C)C)Oc1cccnc1C1CCN(C(=O)[C@@H](Cc2ccc(Cl)cc2Cl)NC(=O)N2CCCC2)CC1 [Example 62] | ≤ 100 | -10 | –
13 | CC[C@@H](CN1CCCC1)Oc1nccnc1C1CCN(C(=O)[C@@H](Cc2ccc(Cl)cc2Cl)NC(=O)N2CCCC2)CC1 [Example 63] | ≤ 100 | 0 | –
14 | CC[C@H](COc1nc(C)ncc1C1CCN(C(=O)[C@@H](Cc2ccc(Cl)cc2Cl)NC(=O)N2CCCC2)CC1)N(C)C [Example 64] | ≤ 100 | 13 | –
15 | Cc1ccc(C2CCN(C(=O)[C@@H](Cc3ccc(Cl)cc3F)NC(=O)N3CCCC3)CC2)c(N2CCN(C)CC2)n1 [Example 65] | ≤ 100 | 0 | –
16 | Cc1ccc(C2CCN(C(=O)[C@@H](Cc3ccc(F)cc3Cl)NC(=O)N3CCCC3)CC2)c(N2CCN(C)CC2)n1 [Example 66] | 100 to 1000 | 0 | –
17 | Cc1ccc(C2CCN(C(=O)[C@@H](Cc3ccc(F)cc3F)NC(=O)N3CCCC3)CC2)c(N2CCN(C)CC2)n1 [Example 67] | > 1000 | 33 | > 1000
18 | CC[C@H](COc1cc(Cl)cnc1C1CCN(C(=O)[C@@H](Cc2ccc(C)cc2C)NC(=O)N2CCCC2)CC1)N1CCCC1 [Example 71] | ≤ 100 | -4 | –
19 | CC[C@H](COc1cc(Cl)cnc1C1CCN(C(=O)[C@@H](Cc2ccc(C)cc2C)NC(=O)N2CCCC2)CC1)N(C)C [Example 73] | ≤ 100 | -15 | –
20 | CC[C@H](COc1cc(Cl)cnc1C1CCN(C(=O)[C@@H](Cc2ccc(C)cc2C)NC(=O)N2CC(O)C2)CC1)N(C)C [Example 74] | ≤ 100 | -5 | –
21 | CC[C@H](COc1cc(F)cnc1C1CCN(C(=O)[C@@H](Cc2ccc(Cl)cc2Cl)NC(=O)N2CC(O)C2)CC1)N(C)C [Example 75] | ≤ 100 | -1 | –

Second part, the compound after the results:

Row | IC50 [1] [nM] | Emax [2] [%] | EC50 [2] [nM] | SMILES
22 | 100 to 1000 | 0 | – | CN1CC[C@@H](Oc2cccnc2C2CCN(C(=O)[C@@H](Cc3ccc(Cl)cc3Cl)NC(=O)N3CCCC3)CC2)C1 [Example 43]
23 | 100 to 1000 | -4 | – | CN1CCC[C@H]1COc1cccnc1C1CCN(C(=O)[C@@H](Cc2ccc(Cl)cc2Cl)NC(=O)N2CCCC2)CC1 [Example 44]
24 | ≤ 100 | -27 | 100 to 1000 | CN1CCC[C@@H]1COc1cccnc1C1CCN(C(=O)[C@@H](Cc2ccc(Cl)cc2Cl)NC(=O)N2CCCC2)CC1 [Example 45]
25 | 100 to 1000 | -3 | – | CN1CCO[C@H](COc2cccnc2C2CCN(C(=O)[C@@H](Cc3ccc(Cl)cc3Cl)NC(=O)N3CCCC3)CC2)C1 [Example 49]
26 | 100 to 1000 | 0 | – | CN1CC[C@H](COc2cccnc2C2CCN(C(=O)[C@@H](Cc3ccc(Cl)cc3Cl)NC(=O)N3CCCC3)CC2)C1 [Example 51]
27 | > 1000 | 1 | – | CN1CCO[C@@H](COc2cccnc2C2CCN(C(=O)[C@@H](Cc3ccc(Cl)cc3Cl)NC(=O)N3CCCC3)CC2)C1 [Example 53]
28 | 100 to 1000 | 10 | – | CN1CC[C@@H](COc2cccnc2C2CCN(C(=O)[C@@H](Cc3ccc(Cl)cc3Cl)NC(=O)N3CCCC3)CC2)C1 [Example 54]
29 | 100 to 1000 | 2 | – | CN1CCOC[C@@H]1COc1cccnc1C1CCN(C(=O)[C@@H](Cc2ccc(Cl)cc2Cl)NC(=O)N2CCCC2)CC1 [Example 55]
30 | ≤ 100 | -2 | – | CC[C@H](COc1cccnc1C1CCN(C(=O)[C@@H](Cc2ccc(C)cc2C)NC(=O)N2CCCC2)CC1)N1CCCC1 [Example 70]
31 | ≤ 100 | 0 | – | CC[C@H](COc1cccnc1C1CCN(C(=O)[C@@H](Cc2ccc(Cl)cc2Cl)NC(=O)N2CCC2)CC1)N1CCCC1 [Example 76]
32 | ≤ 100 | 0 | – | CC[C@H](COc1cccnc1C1CCN(C(=O)[C@@H](Cc2ccc(Cl)cc2Cl)NC(=O)N(C)C)CC1)N1CCCC1 [Example 77]
33 | ≤ 100 | 0 | – | CC[C@H](COc1cccnc1C1CCN(C(=O)[C@@H](Cc2ccc(Cl)cc2Cl)NC(=O)N(CC)CC)CC1)N1CCCC1 [Example 78]
34 | ≤ 100 | 0 | – | CC[C@H](COc1cccnc1C1CCN(C(=O)[C@@H](Cc2ccc(Cl)cc2Cl)NC(=O)N(C)CC)CC1)N1CCCC1 [Example 79]
35 | ≤ 100 | 0 | – | CC[C@H](COc1cccnc1C1CCN(C(=O)[C@@H](Cc2ccc(Cl)cc2Cl)NC(=O)N2CC[C@@H](O)C2)CC1)N1CCCC1 [Example 80]
36 | ≤ 100 | 0 | – | CC[C@H](COc1cccnc1C1CCN(C(=O)[C@@H](Cc2ccc(Cl)cc2Cl)NC(=O)N2CC[C@@H](F)C2)CC1)N1CCCC1 [Example 81]
37 | ≤ 100 | 0 | – | CC[C@H](COc1cccnc1C1CCN(C(=O)[C@@H](Cc2ccc(Cl)cc2Cl)NC(=O)N2CCC(F)CC2)CC1)N1CCCC1 [Example 82]

Row | IC50 [1] [nM] | Emax [2] [%] | EC50 [2] [nM] | SMILES
38 | ≤ 100 | 0 | – | CC[C@H](COc1cccnc1C1CCN(C(=O)[C@@H](Cc2ccc(Cl)cc2Cl)NC(=O)N2CCC(F)(F)CC2)CC1)N1CCCC1 [Example 83]
39 | ≤ 100 | 0 | – | CC[C@H](COc1cccnc1C1CCN(C(=O)[C@@H](Cc2ccc(Cl)cc2Cl)NC(=O)N2CC(O)C2)CC1)N1CCCC1 [Example 84]
40 | ≤ 100 | 0 | – | CC[C@H](COc1cccnc1C1CCN(C(=O)[C@@H](Cc2ccc(Cl)cc2Cl)NC(=O)N(CCOC)CCOC)CC1)N1CCCC1 [Example 85]
41 | ≤ 100 | 0 | – | CC[C@H](COc1cccnc1C1CCN(C(=O)[C@@H](Cc2ccc(Cl)cc2Cl)NC(=O)N(C)CCO)CC1)N1CCCC1 [Example 86]
42 | ≤ 100 | 0 | – | CC[C@H](COc1cccnc1C1CCN(C(=O)[C@@H](Cc2ccc(Cl)cc2Cl)NC(=O)N(C)CCOC)CC1)N1CCCC1 [Example 87]
43 | ≤ 100 | 0 | – | CC[C@H](COc1cccnc1C1CCN(C(=O)[C@@H](Cc2ccc(Cl)cc2Cl)NC(=O)N2CCSC2)CC1)N1CCCC1 [Example 88]
44 | ≤ 100 | 0 | – | CC[C@H](COc1cccnc1C1CCN(C(=O)[C@@H](Cc2ccc(Cl)cc2Cl)NC(=O)N2CC[C@H](O)C2)CC1)N1CCCC1 [Example 89]
45 | ≤ 100 | 0 | – | CC[C@H](COc1cccnc1C1CCN(C(=O)[C@@H](Cc2ccc(Cl)cc2Cl)NC(=O)N2CC[C@H](F)C2)CC1)N1CCCC1 [Example 90]
46 | ≤ 100 | 0 | – | CC[C@H](COc1cccnc1C1CCN(C(=O)[C@@H](Cc2ccc(Cl)cc2Cl)NC(=O)N2CCOCC2)CC1)N1CCCC1 [Example 91]
47 | ≤ 100 | 0 | – | CC[C@H](COc1cccnc1C1CCN(C(=O)[C@@H](Cc2ccc(Cl)cc2Cl)NC(=O)N2CCOC[C@@H]2C)CC1)N1CCCC1 [Example 92]
48 | ≤ 100 | 0 | – | CC[C@H](COc1cccnc1C1CCN(C(=O)[C@@H](Cc2ccc(Cl)cc2Cl)NC(=O)N2C[C@@H](C)O[C@@H](C)C2)CC1)N1CCCC1 [Example 93]
49 | ≤ 100 | 0 | – | CC[C@H](COc1cccnc1C1CCN(C(=O)[C@@H](Cc2ccc(Cl)cc2Cl)NC(=O)N2CCCO2)CC1)N1CCCC1 [Example 94]
50 | ≤ 100 | 0 | – | CC[C@H](COc1cccnc1C1CCN(C(=O)[C@@H](Cc2ccc(Cl)cc2Cl)NC(=O)N2CCC=N2)CC1)N1CCCC1 [Example 95]
51 | ≤ 100 | 0 | – | CC[C@H](COc1cccnc1C1CCN(C(=O)[C@@H](Cc2ccc(Cl)cc2Cl)NC(=O)N2CCC(O)CC2)CC1)N1CCCC1 [Example 96]
52 | ≤ 100 | 8 | – | CC[C@H](COc1cccnc1C1CCN(C(=O)[C@@H](Cc2ccc(Cl)cc2Cl)NC(=O)N2C[C@H]3C[C@H]3C2)CC1)N1CCCC1 [Example 97]
